Test results from patent US9695155B2, “Herbicidal substituted pyrimidinyloxy benzene compounds” (E. I. DU PONT DE NEMOURS AND COMPANY, priority 2013, dated 2017).

How the values were obtained:
sedge, umbrella = assay: Test C flooded paddy test; assay type: in vivo, Cyperus difformis; details: Flood, scale 0 to 100 (0 no effect, 100 complete control), 13 to 15 days
Outline: (§1)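 Test compounds are applied straight into paddy water held 3 cm above the soil surface, with that flood maintained for the whole test. After 13 to 15 days in the greenhouse, each species is scored visually relative to controls.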

rice = assay: Test C flooded paddy test; assay type: in vivo, Oryza sativa; details: Flood, scale 0 to 100 (0 no effect, 100 complete control), 13 to 15 days
Outline: as §1

Italian ryegrass = assay: Test A postemergence; assay type: in vivo, Lolium multiflorum
Outline: (§2)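 Scoring: eye-based comparison with untreated controls, 0 for no effect through 100 for complete control, at about day 10. Treatments: directed soil spray preemergence; foliar spray postemergence on 2–10 cm plants at the one- to two-leaf stage. Medium: loam soil with sand.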

galium = assay: Test A postemergence; assay type: in vivo, Galium aparine
Outline: as §2

ragweed = assay: Test A postemergence; assay type: in vivo, Ambrosia elatior
Outline: as §2

[1] = 125 g ai/ha, 0 to 100 scale where 0 is no effect and 100 is complete control
[2] = 500 g ai/ha, 0 to 100 scale where 0 is no effect and 100 is complete control
[3] = 31 g ai/ha, 0 to 100 scale, 0 no effect, 100 complete control
[4] = 1000 g ai/ha, 0 to 100 scale, 0 no effect, 100 complete control
[5] = 125 g ai/ha, 0 to 100 scale, 0 no effect, 100 complete control

## Clc1cnc(Oc2ccccc2-n2cc(Cl)cn2)nc1 [Compound 3]
sedge, umbrella; 31 g ai/ha
  Plant response rating, Sedge, Umbrella: 0
sedge, umbrella; 62 g ai/ha
  Plant response rating, Sedge, Umbrella: 0
sedge, umbrella; 125 g ai/ha
  Plant response rating, Sedge, Umbrella: 20
sedge, umbrella; 250 g ai/ha
  Plant response rating, Sedge, Umbrella: 70
rice; 31 g ai/ha
  Plant response rating, Rice: 0
rice; 62 g ai/ha
  Plant response rating, Rice: 0
rice; 125 g ai/ha
  Plant response rating, Rice: 0
rice; 250 g ai/ha
  Plant response rating, Rice: 0

## N#Cc1cccc(Oc2ncc(F)cn2)c1-n1cc(Br)cn1 [Compound 62]
sedge, umbrella; 31 g ai/ha
  Plant response rating, Sedge, Umbrella: 0
sedge, umbrella; 62 g ai/ha
  Plant response rating, Sedge, Umbrella: 50
sedge, umbrella; 125 g ai/ha
  Plant response rating, Sedge, Umbrella: 90
sedge, umbrella; 250 g ai/ha
  Plant response rating, Sedge, Umbrella: 100
rice; 31 g ai/ha
  Plant response rating, Rice: 15
rice; 62 g ai/ha
  Plant response rating, Rice: 15
rice; 125 g ai/ha
  Plant response rating, Rice: 15
rice; 250 g ai/ha
  Plant response rating, Rice: 25

## Clc1cnc(Oc2cccc(Br)c2-n2cc(Br)cn2)nc1 [Compound 65]
sedge, umbrella; 31 g ai/ha
  Plant response rating, Sedge, Umbrella: 50
sedge, umbrella; 62 g ai/ha
  Plant response rating, Sedge, Umbrella: 65
sedge, umbrella; 125 g ai/ha
  Plant response rating, Sedge, Umbrella: 75
sedge, umbrella; 250 g ai/ha
  Plant response rating, Sedge, Umbrella: 85
rice; 31 g ai/ha
  Plant response rating, Rice: 0
rice; 62 g ai/ha
  Plant response rating, Rice: 0
rice; 125 g ai/ha
  Plant response rating, Rice: 0
rice; 250 g ai/ha
  Plant response rating, Rice: 0

## FCc1cccc(Oc2ncc(Cl)cn2)c1-n1cc(Br)cn1 [Compound 83]
Italian ryegrass; [1]
  Plant response rating, Ryegrass, Italian: 50
Italian ryegrass; [2]
  Plant response rating, Ryegrass, Italian: 80
galium; [1]
  Plant response rating, Galium: 100
galium; [2]
  Plant response rating, Galium: 100
ragweed; [1]
  Plant response rating, Ragweed: 70
ragweed; [2]
  Plant response rating, Ragweed: 80

## CCOc1cn(-c2c(Br)cccc2Oc2ncc(Cl)cn2)nn1 [Compound 84]
Italian ryegrass; [1]
  Plant response rating, Ryegrass, Italian: 50
Italian ryegrass; [2]
  Plant response rating, Ryegrass, Italian: 80
galium; [1]
  Plant response rating, Galium: 100
galium; [2]
  Plant response rating, Galium: 100
ragweed; [1]
  Plant response rating, Ragweed: 50
ragweed; [2]
  Plant response rating, Ragweed: 90

## FCc1cccc(Oc2ncc(F)cn2)c1-n1cc(C(F)(F)F)cn1 [Compound 118]
Italian ryegrass; [3]
  Plant response rating, Ryegrass, Italian: 20
galium; [3]
  Plant response rating, Galium: 70
galium; [1]
  Plant response rating, Galium: 90
ragweed; [3]
  Plant response rating, Ragweed: 70

## FCc1cccc(Oc2ncc(Br)cn2)c1-n1cc(C(F)(F)F)cn1 [Compound 120]
sedge, umbrella; 31 g ai/ha
  Plant response rating, Sedge, Umbrella: 0
sedge, umbrella; 62 g ai/ha
  Plant response rating, Sedge, Umbrella: 0
sedge, umbrella; 125 g ai/ha
  Plant response rating, Sedge, Umbrella: 60
sedge, umbrella; 250 g ai/ha
  Plant response rating, Sedge, Umbrella: 85
Italian ryegrass; [3]
  Plant response rating, Ryegrass, Italian: 0
rice; 31 g ai/ha
  Plant response rating, Rice: 0
rice; 62 g ai/ha
  Plant response rating, Rice: 0
rice; 125 g ai/ha
  Plant response rating, Rice: 15
rice; 250 g ai/ha
  Plant response rating, Rice: 60
galium; [3]
  Plant response rating, Galium: 90
galium; [1]
  Plant response rating, Galium: 100
ragweed; [3]
  Plant response rating, Ragweed: 30

## Clc1cnc(Oc2cccc(Br)c2-n2cc(Br)nn2)nc1 [Compound 129]
Italian ryegrass; [1]
  Ryegrass, Italian plant response rating: 50
Italian ryegrass; [2]
  Plant response rating, Ryegrass, Italian: 90
galium; [1]
  Galium plant response rating: 100
galium; [2]
  Plant response rating, Galium: 100
ragweed; [1]
  Ragweed plant response rating: 80
ragweed; [2]
  Plant response rating, Ragweed: 90

## FC(F)(F)Sc1cnn(-c2ccccc2Oc2ncc(Cl)cn2)c1 [Compound 132, 5-chloro-2-[2-[4-(trifluoromethylthio)-1H-pyrazol-1-yl]phenoxy]pyrimidine]
Italian ryegrass; [1]
  Ryegrass, Italian plant response rating: 10
Italian ryegrass; [2]
  Plant response rating, Ryegrass, Italian: 60
galium; [1]
  Galium plant response rating: 100
galium; [2]
  Plant response rating, Galium: 100
ragweed; [1]
  Ragweed plant response rating: 10
ragweed; [2]
  Plant response rating, Ragweed: 30

## Cc1cnc(Oc2cccc(C#N)c2-n2cc(I)cn2)nc1 [Compound 136]
Italian ryegrass; [1]
  Ryegrass, Italian plant response rating: 30
Italian ryegrass; [2]
  Plant response rating, Ryegrass, Italian: 90
galium; [1]
  Galium plant response rating: 80
galium; [2]
  Plant response rating, Galium: 100
ragweed; [1]
  Ragweed plant response rating: 50
ragweed; [2]
  Plant response rating, Ragweed: 100

## COc1cnn(-c2c(C#N)cccc2Oc2ncc(Cl)cn2)c1 [Compound 137]
Italian ryegrass; [1]
  Ryegrass, Italian plant response rating: 20
Italian ryegrass; [2]
  Plant response rating, Ryegrass, Italian: 80
galium; [1]
  Galium plant response rating: 70
galium; [2]
  Plant response rating, Galium: 100
ragweed; [1]
  Ragweed plant response rating: 20
ragweed; [2]
  Plant response rating, Ragweed: 100

## CCCOc1cnn(-c2c(C#N)cccc2Oc2ncc(Cl)cn2)c1 [Compound 150]
sedge, umbrella; 31 g ai/ha
  Plant response rating, Sedge, Umbrella: 0
sedge, umbrella; 62 g ai/ha
  Plant response rating, Sedge, Umbrella: 50
sedge, umbrella; 125 g ai/ha
  Plant response rating, Sedge, Umbrella: 75
sedge, umbrella; 250 g ai/ha
  Plant response rating, Sedge, Umbrella: 85
Italian ryegrass; [1]
  Ryegrass, Italian plant response rating: 40
Italian ryegrass; [2]
  Plant response rating, Ryegrass, Italian: 100
rice; 31 g ai/ha
  Plant response rating, Rice: 0
rice; 62 g ai/ha
  Plant response rating, Rice: 0
rice; 125 g ai/ha
  Plant response rating, Rice: 0
rice; 250 g ai/ha
  Plant response rating, Rice: 0
galium; [1]
  Galium plant response rating: 90
galium; [2]
  Plant response rating, Galium: 100
ragweed; [1]
  Ragweed plant response rating: 20
ragweed; [2]
  Plant response rating, Ragweed: 60

## FCc1cn(-c2c(F)cccc2Oc2ncc(Cl)cn2)nn1 [Compound 154]
Italian ryegrass; [4]
  Plant response rating, Ryegrass, Italian: 90
galium; [4]
  Plant response rating, Galium: 100
ragweed; [4]
  Plant response rating, Ragweed: 100

## Fc1cccc(Oc2ncc(Cl)cn2)c1-n1cc(C2CC2)nn1 [Compound 155]
Italian ryegrass; [4]
  Plant response rating, Ryegrass, Italian: 100
galium; [4]
  Plant response rating, Galium: 100
ragweed; [4]
  Plant response rating, Ragweed: 100

## N#Cc1cnn(-c2c(Oc3ncc(Cl)cn3)cccc2C(F)F)c1 [Compound 236]
sedge, umbrella; 31 g ai/ha
  Plant response rating, Sedge, Umbrella: 0
sedge, umbrella; 62 g ai/ha
  Plant response rating, Sedge, Umbrella: 20
sedge, umbrella; 125 g ai/ha
  Plant response rating, Sedge, Umbrella: 60
sedge, umbrella; 250 g ai/ha
  Plant response rating, Sedge, Umbrella: 80
rice; 31 g ai/ha
  Plant response rating, Rice: 0
rice; 62 g ai/ha
  Plant response rating, Rice: 0
rice; 125 g ai/ha
  Plant response rating, Rice: 10
rice; 250 g ai/ha
  Plant response rating, Rice: 20

## N#Cc1cccc(Oc2ncc(Cl)cn2)c1-n1cnc(C(F)(F)F)c1 [Compound 252, 3-[(5-chloro-2-pyrimidinyl)oxy]-2-[4-(trifluoromethyl)-1H-imidazol-1-yl]benzonitrile]
Italian ryegrass; [3]
  Plant response rating, Ryegrass, Italian: 0
Italian ryegrass; [5]
  Plant response rating, Ryegrass, Italian: 40
Italian ryegrass; [2]
  Plant response rating, Ryegrass, Italian: 70
galium; [3]
  Plant response rating, Galium: 60
galium; [5]
  Plant response rating, Galium: 90
galium; [2]
  Plant response rating, Galium: 100
ragweed; [3]
  Plant response rating, Ragweed: 20
ragweed; [5]
  Plant response rating, Ragweed: 70
ragweed; [2]
  Plant response rating, Ragweed: 90

## Fc1cccc(Oc2ncc(Cl)cn2)c1-n1cc(OCC(F)(F)F)cn1 [Compound 270]
sedge, umbrella; 31 g ai/ha
  Plant response rating, Sedge, Umbrella: 0
sedge, umbrella; 62 g ai/ha
  Plant response rating, Sedge, Umbrella: 25
sedge, umbrella; 125 g ai/ha
  Plant response rating, Sedge, Umbrella: 60
sedge, umbrella; 250 g ai/ha
  Plant response rating, Sedge, Umbrella: 95
Italian ryegrass; [3]
  Plant response rating, Ryegrass, Italian: 0
Italian ryegrass; [5]
  Plant response rating, Ryegrass, Italian: 30
rice; 31 g ai/ha
  Plant response rating, Rice: 0
rice; 62 g ai/ha
  Plant response rating, Rice: 0
rice; 125 g ai/ha
  Plant response rating, Rice: 0
rice; 250 g ai/ha
  Plant response rating, Rice: 30
galium; [3]
  Plant response rating, Galium: 60
galium; [5]
  Plant response rating, Galium: 90
ragweed; [3]
  Plant response rating, Ragweed: 0
ragweed; [5]
  Plant response rating, Ragweed: 20

## N#Cc1cccc(Oc2ncc(Cl)cn2)c1-n1cc(-n2ccc(C(F)(F)F)n2)cn1 [Compound 284]
Italian ryegrass; [5]
  Plant response rating, Ryegrass, Italian: 20
Italian ryegrass; [2]
  Plant response rating, Ryegrass, Italian: 60
galium; [5]
  Plant response rating, Galium: 20
galium; [2]
  Plant response rating, Galium: 60
ragweed; [5]
  Plant response rating, Ragweed: 20
ragweed; [2]
  Plant response rating, Ragweed: 20
